Each molecule was assayed against T1, Amino acid transporter (Rattus norvegicus) (UniProt Q9Z1J7) (assay: Inhibition of ASCT2 mediated [3H]-D-serine uptake in rat hippocampal astrocytes at 1 mM after 5 mins by beta counting analysis).
T1 sequence (whole entry): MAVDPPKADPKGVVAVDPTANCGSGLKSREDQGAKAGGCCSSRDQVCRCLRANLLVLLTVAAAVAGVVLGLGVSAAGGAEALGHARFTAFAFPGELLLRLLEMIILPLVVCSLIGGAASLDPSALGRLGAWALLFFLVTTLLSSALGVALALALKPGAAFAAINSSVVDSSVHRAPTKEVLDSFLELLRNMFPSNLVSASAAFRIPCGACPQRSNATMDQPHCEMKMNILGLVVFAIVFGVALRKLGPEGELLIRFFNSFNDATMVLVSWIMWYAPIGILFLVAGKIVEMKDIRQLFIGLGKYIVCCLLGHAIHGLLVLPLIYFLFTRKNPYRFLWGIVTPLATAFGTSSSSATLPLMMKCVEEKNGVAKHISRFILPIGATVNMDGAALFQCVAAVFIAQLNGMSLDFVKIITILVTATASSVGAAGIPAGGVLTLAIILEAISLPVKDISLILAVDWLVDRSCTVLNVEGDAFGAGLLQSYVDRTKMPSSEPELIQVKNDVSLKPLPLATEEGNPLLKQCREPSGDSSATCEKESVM
Assay type: cell-based
`O=C(O)C1C[C@@H](Cc2ccccc2I)CN1` (single isomer, unassigned) was tested, and the inhibition was > 25%.
`O=C(O)[C@@H]1C[C@@H](Oc2cccc(Cl)c2)CN1` was tested, and the inhibition was > 25%.
For `NC(C(=O)O)c1ccc(F)c(Cl)c1` (centres undefined), the inhibition was > 25%.
For `CC(C)(C)OC(=O)N1C[C@H](C/C=C/c2ccccc2)C[C@H]1C(=O)O`, the inhibition was > 25%.
In the case of `C[C@H]1CCN[C@@H]1C(=O)O`, the inhibition is reported as > 25%.
In the case of `C#CCC[C@H](N)C(=O)O`, the inhibition is reported as > 25%.
For `O=C(O)[C@@H]1C[C@@H](Cc2ccccc2C(F)(F)F)CN1`, the inhibition was > 25%.
`N[C@H](C(=O)O)c1ccsc1` was tested, and the inhibition was > 25%.
In the case of `NC(C(=O)O)c1cccc(C(F)(F)F)c1` (centres undefined), the inhibition is reported as > 25%.
In the case of `N[C@H](C(=O)O)c1ccco1`, the inhibition is reported as > 25%.
For `N[C@H](C(=O)O)c1cccc(O)c1`, the inhibition was > 25%.
In the case of `CCOC(=O)CC(N)C(=O)O` (centres undefined), the inhibition is reported as > 25%.
In the case of `N[C@H](C(=O)O)c1cccc2ccccc12`, the inhibition is reported as > 25%.
For `O=C(O)[C@@H]1C[C@@H](c2ccccc2)CN1`, the inhibition was > 25%.
`O=C(O)C1C[C@@H](Cc2ccc(I)cc2)CN1` (single isomer, unassigned) was tested, and the inhibition was > 25%.
For `CNC(C(=O)O)c1ccc(OC)cc1` (centres undefined), the inhibition was > 25%.
`NC(C(=O)O)C1C2CC3CC(C2)CC1C3` (centres undefined) was tested, and the inhibition was > 25%.
For `Cc1ccc(SC[C@H](N)C(=O)O)cc1`, the inhibition was > 25%.
In the case of `O=C(O)[C@@H]1C=CCN1`, the inhibition is reported as > 25%.
In the case of `Cc1cc(C(N)C(=O)O)ccc1F` (centres undefined), the inhibition is reported as > 25%.
`N[C@@H](Cc1c[nH]c2ccc(O)cc12)C(=O)O` was tested, and the inhibition was > 25%.
For `NC(Cc1c[nH]c2cc(F)ccc12)C(=O)O` (centres undefined), the inhibition was > 25%.
In the case of `N[C@@H](CC1CCCC1)C(=O)O`, the inhibition is reported as > 25%.
With `O=C(O)[C@H]1C[C@@H](F)CN1` the inhibition was > 25%.
For `Nc1ccccc1C(=O)C[C@@H](N)C(=O)O`, the inhibition was > 25%.
With `NC(C(=O)O)C(O)c1cccs1` (racemic) the inhibition was > 25%.
For `N[C@H](CCO)C(=O)O`, the inhibition was > 25%.
With `C[C@H](O)[C@H](N)C(=O)O` the inhibition was > 25%.
In the case of `C[C@@H](O)[C@H](N)C(=O)O`, the inhibition is reported as > 25%.
For `N[C@@H](Cc1c[nH]c2ccccc12)C(=O)O`, the inhibition was > 25%.
For `N#Cc1cccc(C[C@H]2CNC(C(=O)O)C2)c1` (single isomer, unassigned), the inhibition was > 25%.
In the case of `O=C(O)C1C[C@@H](Cc2csc3ccccc23)CN1` (single isomer, unassigned), the inhibition is reported as > 25%.
In the case of `[N-]=[N+]=NCC[C@H](N)C(=O)O`, the inhibition is reported as > 25%.
With `O=C(O)C1C[C@@H](Cc2ccc(Cl)cc2Cl)CN1` (single isomer, unassigned) the inhibition was > 25%.
With `CC(O)[C@H](C)[C@H](N)C(=O)O` (some centres undefined) the inhibition was > 25%.
With `O=C(O)[C@@H]1C[C@H](Oc2cccc(Cl)c2)CN1` the inhibition was > 25%.
`O=C(O)[C@@H]1C[C@@H](Cc2ccco2)CN1` was tested, and the inhibition was > 25%.
With `O=C(O)C1C[C@@H](Cc2ccccc2Br)CN1` (single isomer, unassigned) the inhibition was > 25%.
With `N[C@H](C(=O)O)c1ccc(C(F)(F)F)cc1` the inhibition was > 25%.
In the case of `N[C@@H](CC(=O)OCc1ccccc1)C(=O)O`, the inhibition is reported as > 25%.
With `NC(C(=O)O)C(O)c1cccnc1` (racemic) the inhibition was > 25%.
With `N[C@@H](Cc1ccc(O)c(O)c1)C(=O)O` the inhibition was > 25%.
With `CSC[C@H](N)C(=O)O` the inhibition was > 25%.
In the case of `COC(=O)CC[C@H](N)C(=O)O`, the inhibition is reported as > 25%.
With `NC(C(=O)O)C1CC2C=CC1C2` (centres undefined) the inhibition was > 25%.
In the case of `O=C(O)[C@@H]1CCN1`, the inhibition is reported as > 25%.
`CC(=O)OC[C@H](N)C(=O)O` was tested, and the inhibition was > 25%.
With `NC(C(=O)O)c1cc(O)cc(O)c1` (centres undefined) the inhibition was > 25%.
For `CCOC(=O)CC[C@H](N)C(=O)O`, the inhibition was > 25%.
`N[C@@H](CCC(=O)NO)C(=O)O` was tested, and the inhibition was > 25%.
For `NC1(C(=O)O)CC1`, the inhibition was > 25%.
In the case of `N[C@@H](CC1CC1)C(=O)O`, the inhibition is reported as > 25%.
In the case of `O=C(O)C1C[C@@H](Cc2ccc(F)c(F)c2)CN1` (single isomer, unassigned), the inhibition is reported as > 25%.
For `C[C@H](N)C(=O)O`, the inhibition was > 25%.
For `C#CC[C@H]1CN[C@H](C(=O)O)C1`, the inhibition was > 25%.
With `CC(C)(S)[C@H](N)C(=O)O` the inhibition was > 25%.
`NC(Cc1c[nH]c2cccc(F)c12)C(=O)O` (centres undefined) was tested, and the inhibition was > 25%.
For `CC(C)[C@H](N)C(=O)O`, the inhibition was > 25%.
`CNC[C@H](N)C(=O)O` was tested, and the inhibition was > 25%.
For `NC(C(=O)O)c1ccccc1Cl` (centres undefined), the inhibition was > 25%.
For `N[C@@H](Cc1csc2ccccc12)C(=O)O`, the inhibition was > 25%.
With `NC(CC(=O)Nc1ccccc1)C(=O)O` (centres undefined) the inhibition was > 25%.
With `CCC[C@H](N)C(=O)O` the inhibition was > 25%.
With `O=C(O)C(c1ccc(F)cc1)N1CCOCC1` (centres undefined) the inhibition was > 25%.
With `N[C@@H](Cc1ccc(O)cc1)C(=O)O` the inhibition was > 25%.
`Nc1ccccc1C(=O)C[C@H](N)C(=O)O` was tested, and the inhibition was > 25%.
With `NC(C(=O)O)c1ccc(F)c(F)c1` (centres undefined) the inhibition was > 25%.
In the case of `N[C@@H](CO)C(=O)Nc1ccc2ccccc2c1`, the inhibition is reported as > 25%.
In the case of `O=C(O)[C@@H]1C[C@@H](C2CCCCC2)CN1`, the inhibition is reported as > 25%.
For `Cc1ccc(C[C@H]2CNC(C(=O)O)C2)cc1` (single isomer, unassigned), the inhibition was > 25%.
`O=C(O)C1NCc2ccccc21` (centres undefined) was tested, and the inhibition was > 25%.
`N[C@@H](CCC(=O)Nc1ccc2ccccc2c1)C(=O)O` was tested, and the inhibition was > 25%.
`NC(C(=O)O)C12CC3CC(CC(C3)C1)C2` (centres undefined) was tested, and the inhibition was > 25%.
For `N[C@@H](CCC(=O)Nc1cccc2ccccc12)C(=O)O`, the inhibition was > 25%.
In the case of `COC[C@H](N)C(=O)O`, the inhibition is reported as > 25%.
In the case of `C[C@@H](N)C(=O)O`, the inhibition is reported as > 25%.
In the case of `O=C(O)C1C[C@@H](Cc2cccc(C(F)(F)F)c2)CN1` (single isomer, unassigned), the inhibition is reported as > 25%.
In the case of `O=C(O)[C@@H]1C[C@@H](Cc2cccc(Cl)c2)CN1`, the inhibition is reported as > 25%.
In the case of `CCSC[C@H](N)C(=O)O`, the inhibition is reported as > 25%.
For `N[C@H]1CCOC1=O`, the inhibition was > 25%.
In the case of `O=C(O)[C@@H]1C[C@@H](Cc2ccc(C(F)(F)F)cc2)CN1`, the inhibition is reported as > 25%.
`CC[C@H](N)C(=O)O` was tested, and the inhibition was > 25%.
`O=C(O)C1C[C@@H](Cc2ccc(Br)cc2)CN1` (single isomer, unassigned) was tested, and the inhibition was > 25%.
With `O=C(O)C1C[C@@H](Cc2ccccc2Cl)CN1` (single isomer, unassigned) the inhibition was > 25%.
In the case of `O=C(O)C1C[C@@H](Cc2ccsc2)CN1` (single isomer, unassigned), the inhibition is reported as > 25%.
With `O=C(O)C1Cc2c([nH]c3ccccc23)CN1` (centres undefined) the inhibition was > 25%.
In the case of `N[C@@H](Cn1oc(=O)[nH]c1=O)C(=O)O`, the inhibition is reported as > 25%.
For `O=C(O)[C@@H]1C[C@H](Cc2cccc(Cl)c2)CN1`, the inhibition was > 25%.
With `O=C(O)C1C[C@@H](Cc2cccc3ccccc23)CN1` (single isomer, unassigned) the inhibition was > 25%.
In the case of `N[C@@H](CCc1ccccc1)C(=O)O`, the inhibition is reported as > 25%.
In the case of `N[C@@H](Cc1c[nH]c2ccc(F)cc12)C(=O)O`, the inhibition is reported as > 25%.
In the case of `CSCC[C@H](N)C(=O)O`, the inhibition is reported as > 25%.
For `O=C(Nc1ccc2ccccc2c1)[C@@H]1CCCN1`, the inhibition was > 25%.
With `NC(C(=O)O)c1cccc([N+](=O)[O-])c1` (centres undefined) the inhibition was > 25%.
For `COc1ccc(C(N)C(=O)O)cc1` (centres undefined), the inhibition was > 25%.
For `NC(CC(=O)c1ccccc1)C(=O)O` (centres undefined), the inhibition was > 25%.
With `O=C(O)C1C[C@@H](Cc2ccc(Cl)cc2)CN1` (single isomer, unassigned) the inhibition was > 25%.
With `O=C(O)C1C[C@@H](Cc2ccc([N+](=O)[O-])cc2)CN1` (single isomer, unassigned) the inhibition was > 25%.
With `NC(C(=O)O)c1cc(O)ccc1Cl` (centres undefined) the inhibition was > 25%.
